Experiments:
[1] = test system: 3D10 MAb (raised against PvDBP region II); assay: Indirect ELISA, titration of 3D10 against coated peptides; format: binding, mouse; settings: for 3D10 recognition of peptide by ELISA: peptide coated at 5 µg/ml, titration of 3D10, OD relative to isotype control IgG1
Experimental: (§1) Immunoglobulin G (IgG) reactivity was measured using the enzyme-linked immunosorbent assay (ELISA). Briefly, 96-well Maxisorb plates (catalogue no. 439454; Thermo Fisher Scientific) were coated with synthetic peptides and recombinant full-length VAR2CSA diluted in 1 x PBS and incubated overnight at 4°C. Coated plates were blocked with 4% bovine serum albumin (BSA, catalogue no. A7906; Sigma-Aldrich) for 1 h at 37°C, then washed once with 1 x PBST (0.1% Tween 20). Plates were incubated with primary antibody for 1 h at room temperature (RT) and washed four times with 1 x PBST. The washed plates were incubated at RT for 1 h with 100 µl of HRP-conjugated secondary antibody (goat anti-human HRP, catalogue no. ab98624, Abcam; goat anti-mouse HRP, catalogue no. 170-6516, Bio-Rad, Mississauga, Canada; goat anti-rat HRP catalogue no. 62-9520). After four washes, 100 µl of 3,3′,5,5′-Tetramethylbenzidine (TMB, catalogue no. T0440; Sigma-Aldrich) were added and the reaction was stopped after 30 mins with an equal volume of H2SO4 (0.5 N). Human sera were screened once, in duplicate. The optical density (OD) values were converted to arbitrary units relative to the positive control sera included on each plate using the formula: AU = ODtest -ODbackground/ODpositive control pool – ODbackground)*100. The positive control pool refers to the OD of a pool of Colombian or Ugandan samples that were seroreactive against the peptides or VAR2CSA, respectively. The background is the OD with secondary antibody alone. The cut-off for seropositivity was based on the mean AU of sera from 12 individual Colombians not exposed to malaria plus 2 standard deviations; data to generate the cut-off are from two independent experiments. Only sera that were above the cut-off for VAR2CSA seropositivity were screened against CRP1 and SD1CLIPS.

[2] = test system: 3D10 MAb binding to SD1CLIPS; assay: Competition ELISA of 3D10 with SD1CLIPS as capture antigen; design: species or system mouse; settings: 3D10 (1.72 µg/ml) pre-incubated 1 h RT with 10 µg/ml competing peptide; SD1CLIPS coated 1 µg/ml; compared with negative control peptide P10; 3 independent experiments
[3] = test system: 3D10 MAb binding to recombinant VAR2CSA (FCR3); assay: Competition ELISA of 3D10 with VAR2CSA as capture antigen; design: species or system mouse; settings: 3D10 (8.6 µg/ml) pre-incubated 1 h RT with 10 µg/ml competing peptide; VAR2CSA coated 1 µg/ml; 3 independent experiments
Experimental: as §1, with “The positive control pool refers to the OD of a pool of Colombian or Ugandan samples that were seroreactive against the peptides or VAR2CSA, respectively. The background is the OD with secondary antibody alone. The cut-off for seropositivity was based on the mean AU of sera from 12 individual Colombians not exposed to malaria plus 2 standard deviations; data to generate the cut-off are from two independent experiments. Only sera that were above the cut-off for VAR2CSA seropositivity were screened against CRP1 and SD1CLIPS.” left out

[4] = Isothermal titration calorimetry (ITC) of peptides with CSA; format: binding, Bovine; settings: 25°C; for Binding to CSA by ITC: PBS with 0.5% acetonitrile pH 7.4, 50 µM peptide in cell, 1 mM CSA in syringe, 25 injections of 1.5 µl
Experimental: Bovine tracheal CSA was purchased from Sigma-Aldrich (Cat no C9819). The energetics of the binding of peptides to CSA was performed at 25°C, on a MicroCal PEAQ-ITC calorimeter (Malvern Panalytical, Malvern, USA). For all experiments, samples were prepared in PBS containing 0.5% acetonitrile, pH 7.4. The reference cell was loaded with autoclaved milli-Q ultra-pure water; the sample cell was loaded with peptide solution (50 µM) and the syringe was filled with 1 mM CSA solution (based on a molecular weight of 50 kDa). In each titration, 25 injections of 1.5 μl of the CSA solution were made into the sample cell. A spacing of 150 s between each injection was applied to enable the system to reach equilibrium. The ITC data were analyzed with MicroCal-PEAQ-ITC Analysis Software v1.41. Binding parameters such as the ΔH (enthalpy change) and the ΔS (entropy change) were determined by fitting the experimental binding isotherms with the ‘one set of sites’ fitting model and GraphPad Prism software (version 9) was used to plot the results.

[5] = test system: rat-CRP1 antibodies (sera of CRP1-BSA immunized rats); assay: Indirect ELISA, reactivity of rat anti-CRP1 sera against peptides; format: binding; settings: peptide coated 5 µg/ml, rat sera 1/100 dilution
Experimental: as §1, with “The positive control pool refers to the OD of a pool of Colombian or Ugandan samples that were seroreactive against the peptides or VAR2CSA, respectively. The background is the OD with secondary antibody alone. The cut-off for seropositivity was based on the mean AU of sera from 12 individual Colombians not exposed to malaria plus 2 standard deviations; data to generate the cut-off are from two independent experiments. Only sera that were above the cut-off for VAR2CSA seropositivity were screened against CRP1 and SD1CLIPS.” left out

[6] = test system: P. falciparum CS2 infected erythrocytes (VAR2CSA-expressing) binding to CSA; assay: Inhibition of binding assay (IBA), static binding of IEs to CSA; format: cell-based; settings: CS2 IEs preincubated with soluble CSA 250 µg/ml, positive control; relative to AE-BSA control
Experimental: CRP1 was conjugated to BSA (as carrier protein) at the N-terminus through an azide-alkyne cycloaddition and outsourced commercially to ProSci (California, USA) for rat immunizations. As controls, an unrelated peptide conjugate (P5-BSA), the PAMVAC vaccine candidate (ID1-ID2a region from VAR2CSA) and the carrier protein conjugated to the linker (azido-ethanol (AE-BSA)) were included. Briefly, two female Sprague Dawley rats (~11 weeks old) were immunized intraperitoneally on day 0 with 75 µg of each antigen formulated in PBS and Complete Freund’s Adjuvant (CFA) followed by 3 booster immunizations with 50 µg of antigen in Incomplete Freund’s Adjuvant at 2-week intervals. Sera were collected 14 days after the final boost.
P. falciparum CS2 parasites were cultured in vitro as described ([Trager and Jensen, 1976]). Parasites were selected for adhering to CSA every 3-4 weeks to enrich for parasites expressing VAR2CSA. […]
The ability of anti-CRP1 IgG to block parasite binding to CSA in vitro was assessed by a static binding assay ([Gnidehou et al., 2014]). […] After washing, spots were fixed with glutaraldehyde and stained with Giemsa before imaging using a EVOS FL Auto microscope (Invitrogen) and the number of parasites bound per spot was analyzed using ImageJ. Percent inhibition of binding was calculated relative to the counts from the AE-BSA control.

Substance: KKYISEKKQEWDKQKTKYENKYVGKSASDLLKEN [CRP1]
- 3D10 recognition of peptide by ELISA compared with SD1CLIPS ([1]; both peptides coated at 1 µg/ml, titration of 3D10): substantially weaker
- 3D10 recognition of peptide by ELISA [1]: recognizes
- Competition for 3D10 binding to SD1CLIPS [2]: significant loss in SD1CLIPS recognition
- Competition for 3D10 binding to VAR2CSA [3]: same binding inhibition toward VAR2CSA as compared to SD1CLIPS
- Binding to CSA by ITC in the presence of 100 mM NaCl ([4]; 50 µM peptide, 1 mM CSA, in the presence of 100 mM NaCl): abrogated
- Binding to CSA by ITC [4]: heat release after each CSA injection, consistent with CSA binding to CRP1
- Recognition of peptide by rat-CRP1 antibodies (ELISA) [5]: recognized

Substance: KQIWLKSKSKNKTEEKGKDYYQKEKYKANLEVSD [Scrambled CRP1 peptide, scrambled version of CRP1, reference compound]
- 3D10 recognition of peptide by ELISA [1]: poorly recognized
- Binding to CSA by ITC [4]: also bound to CSA
- Recognition of peptide by rat-CRP1 antibodies (ELISA) [5]: did not recognize

Substance: KKYISEKKQEWDAQKTAYENAYVGKSASDLLKEN [CRP1-AAA]
- 3D10 recognition of peptide by ELISA [1]: completely abolished antibody recognition

Substance: KAYISEKKQEWDKQKTKYENKYVGKSASDLLKEN [CRP1-K1510A]
- 3D10 recognition of peptide by ELISA [1]: partially reduced binding

Substance: chondroitin sulfate A [Soluble CSA]
- Percent inhibition of IE binding to CSA [6]: over 90%

From publication PMC10312377, “A conserved epitope in VAR2CSA is targeted by a cross-reactive antibody originating from Plasmodium vivax Duffy binding protein” (Frontiers in Cellular and Infection Microbiology, 2023)
